Tests used:
[1] = target: D(4) dopamine receptor (Homo sapiens, UniProt P21917); assay: GPCRScan assay: inhibition of D4; set-up: radioligand conc. used [nm] 0.6 – 1.7, parental cells Stable HEK
[2] = target: Alpha-2C adrenergic receptor (Homo sapiens, UniProt P18825); assay: GPCRScan assay: inhibition of Alpha2C; set-up: radioligand conc. used [nm] 0.5 – 1.0, parental cells stable MDCK
[3] = target: Alpha-1D adrenergic receptor (Homo sapiens) (UniProt P25100); conditions: Compound concentration 10.0 uM
[4] = target: Muscarinic acetylcholine receptor M1 (Homo sapiens) (UniProt P11229); conditions: Compound concentration 10.0 uM
[5] = target: Alpha-2A adrenergic receptor (Homo sapiens) (UniProt P08913); conditions: Compound concentration 10.0 uM
[6] = target: Neuromedin-K receptor (Homo sapiens) (UniProt P29371); assay: NK3 tachykinin receptor (h) CEREP ligand profiling; conditions: Compound concentration 10.0 uM
[7] = target: Tumor necrosis factor (Homo sapiens) (UniProt P01375); assay: Tumor necrosis factor-alpha CEREP ligand profiling; conditions: Compound concentration 10.0 uM
[8] = target: Neuropeptide Y receptor type 1 (Homo sapiens) (UniProt P25929); assay: Y1 receptor CEREP ligand profiling; conditions: Compound concentration 10.0 uM
[9] = Cl- ionophore CEREP ligand profiling; conditions: Compound concentration 10.0 uM
[10] = target: Voltage-gated L-type calcium channel (verapamil site) (Homo sapiens, UniProt O60840+Q01668+Q13698+Q13936); assay: Ca2+ channel (L, verapamil site) CEREP ligand profiling; type: protein assay; conditions: compound concentration 10 uM
[11] = target: 5-hydroxytryptamine receptor 1B (Homo sapiens) (UniProt P28222); assay: 5-Hydroxytryptamine1B CEREP ligand profiling; conditions: Compound concentration 10.0 uM
[12] = target: Serine/threonine-protein kinase DCLK1 (Homo sapiens, UniProt O15075); assay: Inhibition of DCLK1 at compound concentration of 10.0 uM using the ScanMax (DiscoverX)
[13] = target: P2Y receptor (Homo sapiens) (UniProt Q9H244+P51582+P47900+P41231+Q15391+Q15077+Q96G91+Q9BPV8); assay: P2Y-purinergic receptor CEREP ligand profiling; type: protein assay; conditions: Compound concentration 10.0 uM
[14] = target: 5-hydroxytryptamine receptor 7 (Homo sapiens) (UniProt P34969); conditions: Compound concentration 10.0 uM
[15] = target: GABA-A receptor; anion channel (Rattus norvegicus) (UniProt O09028+P15431+P18506+P18508+P19969+P20236+P23574+P23576+P28471+P28473+P30191+P62813+P63079+P63138+Q91ZM7+Q9ES14); conditions: Compound concentration 10.0 uM
[16] = target: D(1B) dopamine receptor (Homo sapiens) (UniProt P21918); assay: Dopamine D5 receptor (h) CEREP ligand profiling; conditions: Compound concentration 10.0 uM
[17] = target: Adenosine receptor A3 (Homo sapiens) (UniProt P0DMS8); assay: Adenosine A 3 receptor (h) CEREP ligand profiling; conditions: Compound concentration 10.0 uM
[18] = target: 5-hydroxytryptamine receptor 2A (Homo sapiens) (UniProt P28223); assay: 5-Hydroxytryptamine2A (h) CEREP ligand profiling; conditions: Compound concentration 10.0 uM
[19] = target: Type-2 angiotensin II receptor (Homo sapiens) (UniProt P50052); assay: Angiotensin AT2 receptor (h) CEREP ligand profiling; conditions: Compound concentration 10.0 uM
[20] = target: Muscarinic acetylcholine receptor M4 (Homo sapiens) (UniProt P08173); assay: Muscarinic M4 receptors (h) CEREP ligand profiling; conditions: Compound concentration 10.0 uM
[21] = target: Muscarinic acetylcholine receptor M4 (Homo sapiens) (UniProt P08173); conditions: Compound concentration 10.0 uM
[22] = target: 5-hydroxytryptamine receptor 5A (Homo sapiens) (UniProt P47898); assay: 5-Hydroxytryptamine5A (h) CEREP ligand profiling; conditions: Compound concentration 10.0 uM
[23] = target: Adrenergic receptor alpha-1 (Homo sapiens) (UniProt P35348+P25100+P35368); assay: alpha1-adrenoceptor (non-selective) CEREP ligand profiling; type: protein assay; conditions: Compound concentration 10.0 uM
[24] = target: Adenosine receptor A1 (Homo sapiens) (UniProt P30542); assay: Adenosine A1 receptor (h) CEREP ligand profiling; conditions: Compound concentration 10.0 uM
[25] = target: Sodium-dependent noradrenaline transporter (Homo sapiens) (UniProt P23975); assay: Norepinephrine uptake CEREP ligand profiling; conditions: Compound concentration 10.0 uM
[26] = target: Calcium-activated potassium channel (Homo sapiens) (UniProt Q92952+Q9UGI6+Q12791+O15554+Q9H2S1+A8MYU2); assay: K+ channel (Ca2+-dependent) CEREP ligand profiling; type: protein assay; conditions: Compound concentration 10.0 uM
[27] = target: Sigma non-opioid intracellular receptor 1 (Homo sapiens, UniProt Q99720); assay: sigma-Receptor (non-selective) CEREP ligand profiling; conditions: Compound concentration 10.0 uM
Sigma non-opioid intracellular receptor 1, sequence (Q99720 whole entry): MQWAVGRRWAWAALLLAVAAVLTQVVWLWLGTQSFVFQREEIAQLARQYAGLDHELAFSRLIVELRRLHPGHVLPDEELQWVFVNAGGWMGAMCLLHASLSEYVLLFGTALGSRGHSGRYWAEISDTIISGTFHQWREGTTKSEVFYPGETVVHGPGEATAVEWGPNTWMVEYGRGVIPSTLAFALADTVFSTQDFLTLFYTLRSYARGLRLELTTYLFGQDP

Muscarinic acetylcholine receptor M4 (Homo sapiens), sequence (P08173 whole entry): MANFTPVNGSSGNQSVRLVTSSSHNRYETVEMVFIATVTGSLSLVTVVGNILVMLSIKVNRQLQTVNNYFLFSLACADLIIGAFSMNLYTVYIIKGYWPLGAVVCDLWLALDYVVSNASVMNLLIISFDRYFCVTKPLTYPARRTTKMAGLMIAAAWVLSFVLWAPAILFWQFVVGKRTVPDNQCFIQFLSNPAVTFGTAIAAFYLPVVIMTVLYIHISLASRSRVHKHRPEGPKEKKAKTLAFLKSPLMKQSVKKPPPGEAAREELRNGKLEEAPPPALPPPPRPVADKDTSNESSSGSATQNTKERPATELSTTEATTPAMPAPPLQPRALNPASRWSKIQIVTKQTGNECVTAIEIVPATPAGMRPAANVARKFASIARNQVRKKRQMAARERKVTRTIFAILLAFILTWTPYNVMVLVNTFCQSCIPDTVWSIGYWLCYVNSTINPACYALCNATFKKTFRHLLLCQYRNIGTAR
Neuropeptide Y receptor type 1 (Homo sapiens), sequence (P25929 whole entry): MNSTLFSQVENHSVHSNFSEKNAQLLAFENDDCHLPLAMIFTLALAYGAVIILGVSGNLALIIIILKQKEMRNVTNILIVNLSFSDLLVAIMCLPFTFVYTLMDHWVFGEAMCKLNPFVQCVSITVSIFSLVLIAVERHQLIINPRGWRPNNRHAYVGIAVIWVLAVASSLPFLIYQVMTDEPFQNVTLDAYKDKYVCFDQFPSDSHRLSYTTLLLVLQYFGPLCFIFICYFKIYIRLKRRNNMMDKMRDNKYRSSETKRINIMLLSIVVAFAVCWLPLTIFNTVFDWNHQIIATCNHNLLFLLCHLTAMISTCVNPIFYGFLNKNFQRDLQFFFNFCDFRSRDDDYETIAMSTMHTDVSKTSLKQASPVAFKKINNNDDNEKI
Alpha-2A adrenergic receptor (Homo sapiens), sequence (P08913 whole entry): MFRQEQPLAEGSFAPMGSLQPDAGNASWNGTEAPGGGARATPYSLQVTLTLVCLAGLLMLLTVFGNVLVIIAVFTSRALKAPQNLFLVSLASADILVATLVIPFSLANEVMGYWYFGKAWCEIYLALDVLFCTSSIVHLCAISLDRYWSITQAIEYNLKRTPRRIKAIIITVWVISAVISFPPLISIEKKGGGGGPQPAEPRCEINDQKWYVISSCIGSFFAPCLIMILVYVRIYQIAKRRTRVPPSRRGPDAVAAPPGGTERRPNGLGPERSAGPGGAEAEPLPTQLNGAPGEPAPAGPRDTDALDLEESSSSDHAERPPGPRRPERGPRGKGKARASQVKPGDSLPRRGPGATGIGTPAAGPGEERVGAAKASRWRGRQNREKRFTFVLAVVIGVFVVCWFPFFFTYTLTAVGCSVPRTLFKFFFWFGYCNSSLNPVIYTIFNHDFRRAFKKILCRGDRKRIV
Sodium-dependent noradrenaline transporter (Homo sapiens), sequence (P23975 whole entry): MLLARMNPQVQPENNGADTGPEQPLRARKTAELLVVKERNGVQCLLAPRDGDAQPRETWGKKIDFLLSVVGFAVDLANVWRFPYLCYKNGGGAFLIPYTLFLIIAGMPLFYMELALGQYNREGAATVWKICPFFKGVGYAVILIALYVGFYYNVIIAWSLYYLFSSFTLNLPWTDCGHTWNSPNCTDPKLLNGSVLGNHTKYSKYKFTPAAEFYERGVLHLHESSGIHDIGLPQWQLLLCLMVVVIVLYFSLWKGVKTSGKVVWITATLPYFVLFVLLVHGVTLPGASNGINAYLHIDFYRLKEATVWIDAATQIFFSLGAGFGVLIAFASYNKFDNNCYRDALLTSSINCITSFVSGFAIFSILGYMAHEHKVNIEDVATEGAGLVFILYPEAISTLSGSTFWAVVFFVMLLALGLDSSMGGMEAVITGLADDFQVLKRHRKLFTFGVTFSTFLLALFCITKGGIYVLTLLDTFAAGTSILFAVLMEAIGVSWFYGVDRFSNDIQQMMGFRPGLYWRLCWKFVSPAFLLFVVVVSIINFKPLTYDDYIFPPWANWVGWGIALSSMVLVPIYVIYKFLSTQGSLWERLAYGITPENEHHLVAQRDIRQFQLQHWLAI
Type-2 angiotensin II receptor (Homo sapiens), sequence (P50052 whole entry): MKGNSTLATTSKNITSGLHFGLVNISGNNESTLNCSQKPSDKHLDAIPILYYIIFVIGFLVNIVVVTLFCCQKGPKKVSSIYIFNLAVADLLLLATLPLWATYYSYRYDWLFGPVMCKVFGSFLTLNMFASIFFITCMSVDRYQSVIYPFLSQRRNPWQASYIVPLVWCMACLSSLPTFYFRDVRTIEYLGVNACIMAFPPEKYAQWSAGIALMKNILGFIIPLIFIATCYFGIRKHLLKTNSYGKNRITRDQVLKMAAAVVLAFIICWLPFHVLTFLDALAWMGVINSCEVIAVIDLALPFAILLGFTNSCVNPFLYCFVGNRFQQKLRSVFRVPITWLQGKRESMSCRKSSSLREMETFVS
Adenosine receptor A1 (Homo sapiens), sequence (P30542 whole entry): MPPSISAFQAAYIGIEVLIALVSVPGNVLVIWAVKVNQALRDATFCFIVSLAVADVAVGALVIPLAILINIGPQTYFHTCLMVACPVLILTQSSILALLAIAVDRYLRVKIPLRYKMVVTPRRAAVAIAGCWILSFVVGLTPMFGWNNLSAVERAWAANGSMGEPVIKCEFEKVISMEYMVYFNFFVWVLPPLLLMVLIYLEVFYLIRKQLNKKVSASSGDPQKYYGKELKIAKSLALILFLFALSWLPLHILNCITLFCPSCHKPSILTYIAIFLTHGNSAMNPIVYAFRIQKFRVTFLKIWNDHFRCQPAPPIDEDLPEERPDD
Alpha-1D adrenergic receptor (Homo sapiens), sequence (P25100 whole entry): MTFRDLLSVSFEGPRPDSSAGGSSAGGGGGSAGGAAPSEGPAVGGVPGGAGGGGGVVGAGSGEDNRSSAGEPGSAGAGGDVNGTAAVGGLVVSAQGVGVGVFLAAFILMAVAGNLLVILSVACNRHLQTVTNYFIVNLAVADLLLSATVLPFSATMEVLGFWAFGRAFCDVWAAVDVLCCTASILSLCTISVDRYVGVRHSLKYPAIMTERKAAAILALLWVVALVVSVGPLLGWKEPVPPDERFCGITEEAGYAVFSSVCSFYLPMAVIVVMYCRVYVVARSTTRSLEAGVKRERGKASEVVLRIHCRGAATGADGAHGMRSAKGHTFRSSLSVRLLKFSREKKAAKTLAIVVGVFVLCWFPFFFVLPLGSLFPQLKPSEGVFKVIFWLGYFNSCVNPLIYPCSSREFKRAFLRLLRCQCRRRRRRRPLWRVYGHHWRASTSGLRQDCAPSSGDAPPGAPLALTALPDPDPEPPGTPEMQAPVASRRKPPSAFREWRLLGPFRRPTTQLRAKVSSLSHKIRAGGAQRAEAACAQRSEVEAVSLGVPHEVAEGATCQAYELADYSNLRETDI
Muscarinic acetylcholine receptor M1 (Homo sapiens), sequence (P11229 whole entry): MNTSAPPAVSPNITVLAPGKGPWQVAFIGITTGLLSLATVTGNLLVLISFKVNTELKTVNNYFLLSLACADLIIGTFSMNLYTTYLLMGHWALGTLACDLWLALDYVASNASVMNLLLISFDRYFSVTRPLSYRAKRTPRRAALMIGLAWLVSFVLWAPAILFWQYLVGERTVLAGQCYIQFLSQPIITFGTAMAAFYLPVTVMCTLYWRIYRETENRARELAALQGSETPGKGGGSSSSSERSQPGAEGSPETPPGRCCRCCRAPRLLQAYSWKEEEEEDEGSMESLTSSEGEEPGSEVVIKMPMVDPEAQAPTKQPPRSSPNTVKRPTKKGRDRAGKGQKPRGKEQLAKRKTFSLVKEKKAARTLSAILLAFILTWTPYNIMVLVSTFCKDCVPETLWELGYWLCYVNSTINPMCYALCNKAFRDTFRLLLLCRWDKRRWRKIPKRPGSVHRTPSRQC
5-hydroxytryptamine receptor 1B (Homo sapiens), sequence (P28222 whole entry): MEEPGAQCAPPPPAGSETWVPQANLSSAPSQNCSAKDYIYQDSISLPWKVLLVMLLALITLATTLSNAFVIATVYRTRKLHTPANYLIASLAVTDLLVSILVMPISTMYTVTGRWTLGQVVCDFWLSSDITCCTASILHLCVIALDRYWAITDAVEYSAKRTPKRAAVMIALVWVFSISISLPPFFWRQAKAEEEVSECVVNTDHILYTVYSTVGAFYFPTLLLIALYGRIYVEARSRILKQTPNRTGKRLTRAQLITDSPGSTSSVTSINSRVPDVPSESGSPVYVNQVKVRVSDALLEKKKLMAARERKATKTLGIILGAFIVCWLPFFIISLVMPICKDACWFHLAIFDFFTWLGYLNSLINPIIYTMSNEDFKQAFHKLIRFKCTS
Alpha-2C adrenergic receptor, sequence (P18825 whole entry): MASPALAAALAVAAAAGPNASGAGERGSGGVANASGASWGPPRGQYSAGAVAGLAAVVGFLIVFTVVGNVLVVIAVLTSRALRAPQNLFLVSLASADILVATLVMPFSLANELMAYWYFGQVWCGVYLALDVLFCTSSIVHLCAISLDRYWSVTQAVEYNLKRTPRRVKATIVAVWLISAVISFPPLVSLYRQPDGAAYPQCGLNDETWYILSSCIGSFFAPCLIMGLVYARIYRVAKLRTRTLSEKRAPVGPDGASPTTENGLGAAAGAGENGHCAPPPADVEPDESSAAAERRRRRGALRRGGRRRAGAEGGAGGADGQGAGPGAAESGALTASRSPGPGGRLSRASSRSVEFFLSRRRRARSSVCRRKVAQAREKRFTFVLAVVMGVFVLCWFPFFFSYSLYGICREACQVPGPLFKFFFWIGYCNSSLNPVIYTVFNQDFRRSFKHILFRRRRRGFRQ

## CCCCN(CCCC)C(=O)CN1C[C@@H](c2cc(OC)c3c(c2)OCO3)[C@H](C(=O)O)[C@H]1CC(C)(C)CCC [A-545]
[1]
  Ki: 0.0055 µM
[2]
  Ki: 5.77 µM
[3]
  inhibition: 6.55%
[4]
  inhibition: 12.4%
[5]
  inhibition: 19.1%

## CCCCN(CCCC)C(=O)CN1C[C@H](c2cc(OC)c3c(c2)OCO3)[C@@H](C(=O)O)[C@@H]1CC(C)(C)CCC [ABT-546]
[6]
  inhibition: < 10%
[7]
  inhibition: < 10%
[8]
  inhibition: < 10%
[9]
  inhibition: 61%
[10]
  inhibition at 10 µM: 29% (not active)
[11]
  inhibition: < 10%
[12]
  Kd: > 10 µM (not active)
[13]
  inhibition: < 10%
[14]
  inhibition: -2.24%
[15]
  inhibition: -5.72%
[16]
  inhibition: < 10%
[17]
  inhibition: 32%
[18]
  inhibition: < 10%
[19]
  inhibition: < 10%
[20]
  inhibition: < 10%
[21]
  inhibition: 8.5%
[22]
  inhibition: < 10%
[23]
  inhibition: < 10%
[24]
  inhibition: 23%
[25]
  inhibition: < 10%
[26]
  inhibition: < 10%
[27]
  inhibition: < 10%
